{
  "source": "patent EP0361341A2",
  "about": "“Therapeutics for aids based on inhibitors of HIV protease” (MILES INC., priority 1988, dated 1990)",
  "system": "HIV-I",
  "assay": "p24 antigen capture assay in HIV-I infected H9 lymphocytes (in vivo assay of HIV protease activity, Example 53)",
  "format": "cell-based",
  "details": "H9 lymphocytes infected with HIV-I, three days at 37 C, relative to infected, untreated cultures; read-out: concentration showing 50% inhibition of p24 formation",
  "method": "A p24 capture assay (see Example 50 hereinbelow) provides an \"in vivo\" method for determining HIV-protease activity. The inhibitor is added to cells infected with HIV, […]. Inhibition of propagation of HIV-protease in cells is measured by the absence or presence of p24, which is generated by HIV protease.\nH9 lymphocytes (1x 10^7 cells/ml) were incubated in the presence or absence of HIV-I for 1 hour at 37 C. Cells were washed thoroughly to remove unadsorbed virions and resuspended at 4x10^5 cells/ml in culture medium. Aliquots (one milliliter) were placed in wells of 24 well culture plates containing an equal volume of test compound (diluted in culture medium). After incubation for three days at 37 C, cell density of uninfected cultures was determined to assess toxicity of test compound. A p24 antigen capture assay was used to determine the level of HIV infection in HIV treated cultures. The ability of test compounds to inhibit HIV replication was measured at different concentrations of test compound relative to infected, untreated cultures.",
  "data": [
    {"smiles": "CC[C@H](C)[C@H](NC(=O)[C@@H]1CCCN1CC(Cc1ccccc1)NC(=O)[C@H](CC(N)=O)NC(=O)[C@H](Cc1ccccc1)NC(=O)OC(C)(C)C)C(=O)OCc1ccccc1", "note": "(stereo partly drawn) [Example 25, N-[N-[2-[[N2-[N-[(1,1-Dimethylethoxy)carbonyl]-L-phenylalanyl]-L-asparagyl]amino]-3-phenylpropyl]-L-prolyl]-L-isoleucinbenzylester]", "values": [
      {"measurement": "IC50", "value": 200, "unit": "µM"}
    ]}
  ]
}
